According to US20250051347A1, “BIFUNCTIONAL CHIMERIC HETEROCYCLIC COMPOUND AND USE THEREOF AS ANDROGEN RECEPTOR DEGRADER” (Hinova Pharmaceuticals, Inc., priority 2021, published 2025):
Where two headings read alike, the source gives them in different places.

Tests used:
[1] = biological target: T1, androgen receptor (AR) splicing variant AR-v7 (Homo sapiens, UniProt P10275); assay: Degradation activity on androgen receptor splicing variant AR-v7 in 22RV1 cells (ELISA); assay type: cell-based; conditions: AR-v7 degradation in 22RV1 cells, 48 h, class symbols
T1 construct: The degradation activity of compounds on AR-v7 in 22RV1 cells; host or cells: 22RV1 cells
T1 sequence (P10275 1-644 isoform P10275-3): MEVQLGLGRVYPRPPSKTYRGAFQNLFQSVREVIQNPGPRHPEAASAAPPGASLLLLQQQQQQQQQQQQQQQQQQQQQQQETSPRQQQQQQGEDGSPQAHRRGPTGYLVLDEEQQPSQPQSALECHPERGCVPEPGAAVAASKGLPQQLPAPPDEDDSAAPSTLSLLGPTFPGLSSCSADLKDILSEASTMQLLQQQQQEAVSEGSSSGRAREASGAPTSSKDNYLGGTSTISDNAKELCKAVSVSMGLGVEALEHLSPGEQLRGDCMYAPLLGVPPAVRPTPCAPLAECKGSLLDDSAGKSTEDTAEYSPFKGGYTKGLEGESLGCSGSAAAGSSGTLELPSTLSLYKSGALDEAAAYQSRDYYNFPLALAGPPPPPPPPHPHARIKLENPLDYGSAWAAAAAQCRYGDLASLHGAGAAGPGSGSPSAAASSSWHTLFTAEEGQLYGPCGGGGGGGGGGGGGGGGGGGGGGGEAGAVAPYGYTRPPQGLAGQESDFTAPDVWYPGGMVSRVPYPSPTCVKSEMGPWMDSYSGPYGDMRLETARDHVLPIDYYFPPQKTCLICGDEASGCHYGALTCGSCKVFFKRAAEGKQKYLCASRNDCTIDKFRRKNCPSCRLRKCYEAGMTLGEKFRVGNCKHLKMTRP

[2] = Homo sapiens, 22Rv1, 144 h, read-out: 22RV1 IC50 (nM), 22RV1 cells, 6 days culture, CCK-8, OD 450 nm
[3] = read-out: 22RV1 IC50, 22RV1 cells, 6 days culture, CCK-8, OD 450 nm

Row | Structure (SMILES) | DC50 [1] [nM] | IC50 (22RV1 cells; [2]) [nM] | IC50 (22RV1 cells; [3]) [nM]
1 | CNc1nccc(COc2ccc(C(C)(C)c3ccc(OC4CC(Nc5ccc6c(c5)C(=O)N(C5CCC(=O)NC5=O)C6=O)C4)cc3)cc2)n1 (stereo not shown) [Example 392] | 11 to 100 | 21 | –
2 | CSc1nccc(COc2ccc(C(C)(C)c3ccc(OCCCNc4ccc5c(c4)C(=O)N(C4CCC(=O)NC4=O)C5=O)cc3)cc2)n1 (stereo not shown) [Example 66] | 11 to 100 | 70 | –
3 | CC1CN(c2nccc(COc3ccc(C(C)(C)c4ccc(O[C@H]5C[C@H](Nc6ccc7c(c6)C(=O)N(C6CCC(=O)NC6=O)C7=O)C5)cc4)cc3)n2)CCN1C (stereo partly shown) [Example 450, 5-(((1r,3r)-3-(4-(2-(4-((2-(3,4-dimethylpiperazin-1-yl)pyrimidin-4-yl)methoxy)phenyl)propan-2-yl)phenoxy)cyclobutyl)amino)-2-(2,6-dioxopiperidin-3-yl)isoindolin-1,3-dione] | 11 to 100 | 8 | –
4 | Cc1nc(-c2ncc(Oc3ccc(C(C)(C)c4ccc(OC5CC(Nc6ccc7c(c6)C(=O)N(C6CCC(=O)NC6=O)C7=O)C5)cn4)cc3)cn2)no1 (stereo not shown) [Example 221, 2-(2,6-dioxopiperidin-3-yl)-5-((1r,3r)-3-((6-(2-(4-((2-(5-methyl-1,2,4-oxadiazol-3-yl)pyrimidin-5-yl)oxy)phenyl)propan-2-yl)pyridin-3-yl)oxy)cyclobutyl)amino)isoindolin-1,3-dione] | < 10 | – | 6
5 | CC(=O)c1cnc(Oc2ccc(C3(c4ccc(OC5CC(Nc6ccc7c(c6)C(=O)N(C6CCC(=O)NC6=O)C7=O)C5)cc4)CCCC3)cc2)cn1 (stereo not shown) [Example 177, 5-(((1r,3r)-3-(4-(1-(4-((5-acetylpyrazin-2-yl)oxy)phenyl)cyclopentyl)phenoxy)cyclobutyl)amino)-2-(2,6-dioxopiperidin-3-yl)isoindolin-1,3-dione] | < 10 | – | 2
6 | CC(c1ccc(Oc2cnc(-n3nccn3)nc2)cc1)c1ccc(O[C@H]2C[C@H](Nc3ccc4c(c3)C(=O)N(C3CCC(=O)NC3=O)C4=O)C2)cc1 (stereo partly shown) [Example 518] | < 10 | 13 | –
7 | CC(C)(c1ccc(Oc2cc(N3CC4(COC4)C3)ncn2)cc1)c1ccc(O[C@H]2C[C@@H](Nc3ccc4c(c3)C(=O)N(C3CCC(=O)NC3=O)C4=O)C2)cc1 (stereo partly shown) [Example 571] | < 10 | 5 | –
8 | CC(C)(c1ccc(OCCCNc2ccc3c(c2)C(=O)N(C2CCC(=O)NC2=O)C3=O)cc1)c1ccc(OCc2nc(C(=O)N3CCOCC3)no2)cc1 (stereo not shown) [Example 142, 2-(2,6-dioxopiperidin-3-yl)-5-((3-(4-(2-(4-((3-(morpholine-4-carbonyl)-1,2,4-oxadiazol-5-yl)methoxy)phenyl)propan-2-yl)phenoxy)propyl)amino)isoindolin-1,3-dione] | 11 to 100 | 61 | –
9 | CNc1cnc(Oc2ccc(C(C)(C)c3ccc(O[C@H]4C[C@H](Nc5ccc6c(c5)C(=O)N(C5CCC(=O)NC5=O)C6=O)C4)cc3)cc2)cn1 (stereo partly shown) [Example 551] | 11 to 100 | 12 | –
10 | O=C1CCC(N2C(=O)c3ccc(N[C@H]4C[C@@H](Oc5ccc(S(=O)(=O)c6ccc(OCc7ccnc(N8CC9(COC9)C8)n7)cc6)cc5)C4)cc3C2=O)C(=O)N1 (stereo partly shown) [Example 363, 5-(((1s,3s)-3-(4-((4-((2-(2-oxa-6-azaspiro[3.3]heptane-6-yl)pyrimidin-4-yl)methoxy)phenyl)sulfonyl)phenoxy)cyclobutyl)amino)-2-(2,6-dioxopiperidin-3-yl)isoindolin-1,3-dione] | < 10 | 24 | –
11 | CCC(CC)(c1ccc(Oc2cnc(-c3noc(C)n3)nc2)cc1)c1ccc(O[C@H]2C[C@H](Nc3ccc4c(c3)C(=O)N(C3CCC(=O)NC3=O)C4=O)C2)cc1 (stereo partly shown) [Example 380, 2-(2,6-dioxopiperidin-3-yl)-5-(((1r,3r)-3-(4-(3-(4-((2-(5-methyl-1,2,4-oxadiazol-3-yl)pyrimidin-5-yl)oxy)phenyl)pentan-3-yl)phenoxy)cyclobutyl)amino)isoindolin-1,3-dione] | < 10 | 5 | –
12 | CC(C)(c1ccc(Oc2cnc(-n3ccnn3)nc2)cc1)c1ccc(O[C@H]2C[C@H](Nc3ccc4c(c3)C(=O)N(C3CCC(=O)NC3=O)C4=O)C2)cc1 (stereo partly shown) [Example 476] | 11 to 100 | 14 | –
13 | CCC(CC)(c1ccc(Oc2cnc(C(C)O)nc2)cc1)c1ccc(O[C@H]2C[C@H](Nc3ccc4c(c3)C(=O)N(C3CCC(=O)NC3=O)C4=O)C2)cc1 (stereo partly shown) [Example 131] | < 10 | 4 | –
14 | CC(=O)c1ccc(Oc2ccc(C(C)(C)c3ccc(O[C@H]4C[C@H](Nc5ccc6c(c5)C(=O)N(C5CCC(=O)NC5=O)C6=O)C4)cc3)cc2)cn1 (stereo partly shown) [Example 124] | < 10 | 8 | –
15 | COc1nccc(COc2ccc(C(C)(C)c3ccc(O[C@H]4C[C@H](Nc5ccc6c(c5)C(=O)N(C5CCC(=O)NC5=O)C6=O)C4)cc3)cc2)n1 (stereo partly shown) [Example 449, 2-(2,6-dioxopiperidin-3-yl)-5-(((1r,3r)-3-(4-(2-(4-((2-methoxypyrimidin-4-yl)methoxy)phenyl)propan-2-yl)phenoxy)cyclobutyl)amino) isoindolin-1,3-dione] | 11 to 100 | 10 | –
16 | CC(C)(c1ccc(Oc2cc(F)cnc2-n2ccnn2)cc1)c1ccc(O[C@H]2C[C@H](Nc3ccc4c(c3)C(=O)N(C3CCC(=O)NC3=O)C4=O)C2)cc1 (stereo partly shown) [Example 517] | < 10 | – | 16
17 | CC(=O)c1nccc(Oc2ccc(C(C)(C)c3ccc(O[C@H]4C[C@H](Nc5ccc6c(c5)C(=O)N(C5CCC(=O)NC5=O)C6=O)C4)cc3)cc2)n1 (stereo partly shown) [Example 246] | < 10 | 5 | –

The remaining lines, values ahead:

Row | DC50 [1] [nM] | IC50 (22RV1 cells; [2]) [nM] | IC50 (22RV1 cells; [3]) [nM] | Structure (SMILES)
18 | < 10 | 13 | – | CC(=O)c1cnc(Oc2ccc(C(C)(C)c3ccc(O[C@H]4C[C@@H](Nc5ccc6c(c5)C(=O)N(C5CCC(=O)NC5=O)C6=O)C4)cc3)cc2)cn1 (stereo partly shown) [Example 130]
19 | < 10 | 2 | – | CCC(CC)(c1ccc(Oc2ccc(C(C)=O)nn2)cc1)c1ccc(O[C@H]2C[C@H](Nc3ccc4c(c3)C(=O)N(C3CCC(=O)NC3=O)C4=O)C2)cc1 (stereo partly shown) [Example 176, 5-(((1r,3r)-3-(4-(3-(4-((6-acetylpyridazine-3-yl)oxy)phenyl)pentan-3-yl)phenoxy)cyclobutyl)amino)-2-(2,6-dioxopiperidin-3-yl)isoindolin-1,3-dione]
20 | < 10 | 16 | – | CN1CCN(c2ccc(Oc3ccc(C(C)(C)c4ccc(O[C@H]5C[C@H](Nc6ccc7c(c6)C(=O)N(C6CCC(=O)NC6=O)C7=O)C5)cc4)cc3)nn2)CC1 (stereo partly shown) [Example 425]
21 | < 10 | 7 | – | CC(=O)c1nccc(COc2ccc(C3(c4ccc(OCCCNc5ccc6c(c5)C(=O)N(C5CCC(=O)NC5=O)C6=O)cc4)CCC3)cc2)n1 (stereo not shown) [Example 351, 5-((3-(4-(1-(4-((2-acetylpyrimidin-4-yl)methoxy)phenyl)cyclobutyl)phenoxy)propyl)amino)-2-(2,6-dioxopiperidin-3-yl)isoindolin-1,3-dione]
22 | < 10 | 6 | – | CCC(=O)c1ncc(Oc2ccc(C(C)(C)c3ccc(O[C@H]4C[C@H](Nc5ccc6c(c5)C(=O)N(C5CCC(=O)NC5=O)C6=O)C4)cc3)cc2)cn1 (stereo partly shown) [Example 427]
23 | < 10 | 15 | – | CC(C)(c1ccc(Oc2cnnc(-n3nccn3)c2)cc1)c1ccc(O[C@H]2C[C@H](Nc3ccc4c(c3)C(=O)N(C3CCC(=O)NC3=O)C4=O)C2)cc1 (stereo partly shown) [Example 217]
24 | < 10 | 3 | – | CCC(CC)(c1ccc(Oc2ccc(-c3noc(C)n3)nn2)cc1)c1ccc(O[C@H]2C[C@H](Nc3ccc4c(c3)C(=O)N(C3CCC(=O)NC3=O)C4=O)C2)cc1 (stereo partly shown) [Example 527]
25 | < 10 | 7 | – | CC(C)C(O)c1ncc(Oc2ccc(C(C)(C)c3ccc(O[C@H]4C[C@H](Nc5ccc6c(c5)C(=O)N(C5CCC(=O)NC5=O)C6=O)C4)cc3)cc2)cn1 (stereo partly shown) [Example 290]
26 | < 10 | 10 | – | CC(C)(O)c1cncc(Oc2ccc(C(C)(C)c3ccc(O[C@H]4C[C@H](Nc5ccc6c(c5)C(=O)N(C5CCC(=O)NC5=O)C6=O)C4)cc3)cc2)n1 (stereo partly shown) [Example 162]
27 | < 10 | 7 | – | CNC(=O)c1ncc(Oc2ccc(C(C)(C)c3ccc(O[C@H]4C[C@H](Nc5ccc6c(c5)C(=O)N(C5CCC(=O)NC5=O)C6=O)C4)cc3)cc2)cn1 (stereo partly shown) [Example 432]
28 | < 10 | 18 | – | Cc1noc(-c2ccc(Oc3ccc(C(C)(C)c4ccc(O[C@H]5C[C@H](Nc6ccc7c(c6)C(=O)N(C6CCC(=O)NC6=O)C7=O)C5)cc4)cc3)nn2)n1 (stereo partly shown) [Example 331]
29 | < 10 | 17 | – | CC(C)(c1ccc(Oc2ccnc(-n3ccnn3)n2)cc1)c1ccc(O[C@H]2C[C@H](Nc3ccc4c(c3)C(=O)N(C3CCC(=O)NC3=O)C4=O)C2)cc1 (stereo partly shown) [Example 471, 5-(((1r,3r)-3-(4-(2-(4-((2-(1H-1,2,3-triazol-1-yl)pyrimidin-4-yl)oxy)phenyl)propan-2-yl)phenoxy)cyclobutyl)amino)-2-(2,6-dioxopiperidin-3-yl)isoindolin-1,3-dione]
